According to PMC9151520 (Archives of Toxicology, 2022):
Values joined by “and” are separate entries in the source; they are usually repeats but may differ in a detail not shown here. Equal values may be shown once. Read-outs that look alike come from different tables or passages of the source.

Tests used:
[1] = test system: p53 signaling (p53RE-bla HCT-116 cells)
[2] = test system: p53 signaling (p53RE-bla HCT-116 cells); assay: cells; format: cell-based
[3] = test system: p53 signaling (p53RE-bla HCT-116 cells); remark: listed apart in the source
[4] = Homo sapiens, HCT-116, read-out: EC50, p53 activation, primary screening
[5] = Homo sapiens, HCT-116, read-out: Efficacy, p53 activation, primary screening
[6] = Homo sapiens, HCT-116, read-out: p53 activation EC50, cherry pick confirmation
[7] = Homo sapiens, HCT-116, read-out: p53 activation EC50, primary screening
[8] = Homo sapiens, HCT-116, read-out: p53 activation efficacy, cherry pick confirmation
[9] = Homo sapiens, HCT-116, read-out: p53 activation efficacy, primary screening
[10] = read-out: EC50, p53 activation, primary screening

For `O=c1c(O)c(-c2ccc(O)c(O)c2)oc2cc(O)cc(O)c12` [Quercetin], the “EC50, p53 activation, cherry pick confirmation” value [1] was “inactive”, the “EC50, p53 activation, primary screening” value [1] was “inactive” and the “Efficacy, p53 activation, cherry pick confirmation” value [1] was “inactive”. The “Efficacy, p53 activation, primary screening” value [1] was “inactive”, the “EC50, p53 activation, cherry pick confirmation” value [2] was “inactive” and the “Efficacy, p53 activation, cherry pick confirmation” value [2] was “inactive”. For the same compound, the EC50 [2, 4] was 45.8 µM, the Emax [2, 5] was 31.7% and the “EC50, viability, cherry pick confirmation” value (p53RE-bla HCT-116 cells) was “inactive”. For the same compound, the “EC50, viability, primary screening” value (p53RE-bla HCT-116 cells) was “inactive”, the “Efficacy, viability, cherry pick confirmation” value (p53RE-bla HCT-116 cells) was “inactive” and the “Efficacy, viability, primary screening” value (p53RE-bla HCT-116 cells) was “inactive”. The “EC50, p53 activation, cherry pick confirmation” value [3] was “inactive”, the “EC50, p53 activation, primary screening” value [3] was “inactive” and the “Efficacy, p53 activation, cherry pick confirmation” value [3] was “inactive”. The “Efficacy, p53 activation, primary screening” value [3] was “inactive”.

In the case of `C/C=C(/C(=C/C)c1ccc(O)cc1)c1ccc(O)cc1` [Dienestrol], the “p53 activation EC50, cherry pick confirmation” value [1] is reported as “inactive”, the “p53 activation EC50, primary screening” value [1] is reported as “inactive” and the “p53 activation efficacy, cherry pick confirmation” value [1] is reported as “inactive”. For the same compound, the “p53 activation efficacy, primary screening” value [1] was “inactive”, the EC50 [2, 6] was 7.79 µM and the EC50 [2, 7] was 7.81 µM. For the same compound, the Emax [2, 8] was 36.1%, the Emax [2, 9] was 32.6% and the “Viability EC50, cherry pick confirmation” value (p53RE-bla HCT-116 cells) was “inactive”. For the same compound, the “Viability EC50, primary screening” value (p53RE-bla HCT-116 cells) was “inactive”, the “Viability efficacy, cherry pick confirmation” value (p53RE-bla HCT-116 cells) was “inactive” and the “Viability efficacy, primary screening” value (p53RE-bla HCT-116 cells) was “inactive”. For the same compound, the “p53 activation EC50, cherry pick confirmation” value [3] was “inactive”, the “p53 activation EC50, primary screening” value [3] was “inactive” and the “p53 activation efficacy, cherry pick confirmation” value [3] was “inactive”. For the same compound, the “p53 activation efficacy, primary screening” value [3] was “inactive”.

For `Nc1nc(Cl)nc2c1ncn2[C@@H]1O[C@H](CO)[C@@H](O)[C@@H]1F` [Clofarabine], the “p53 activation EC50, cherry pick confirmation” value [1] was “inactive”, the “p53 activation EC50, primary screening” value [1] was “inactive” and the “p53 activation efficacy, cherry pick confirmation” value [1] was “inactive”. For the same compound, the “p53 activation efficacy, primary screening” value [1] was “inactive”, the EC50 [2, 6] was 0.335 µM and the EC50 [2, 7] was 0.138 µM. For the same compound, the Emax [2, 8] was 84.9%, the Emax [2, 9] was 93.3% and the “Viability EC50, cherry pick confirmation” value (p53RE-bla HCT-116 cells) was “inactive”. The “Viability EC50, primary screening” value (p53RE-bla HCT-116 cells) was “inactive”, the “Viability efficacy, cherry pick confirmation” value (p53RE-bla HCT-116 cells) was “inactive” and the “Viability efficacy, primary screening” value (p53RE-bla HCT-116 cells) was “inactive”. For the same compound, the “p53 activation EC50, cherry pick confirmation” value [3] was “inactive”, the “p53 activation EC50, primary screening” value [3] was “inactive” and the “p53 activation efficacy, cherry pick confirmation” value [3] was “inactive”. For the same compound, the “p53 activation efficacy, primary screening” value [3] was “inactive”.

With `Clc1ccc2cc3ccccc3cc2c1` [2-Chloroanthracene] the “p53 activation EC50, HLM” value [1] was “inactive”, the EC50 ([1]; read-out: p53 activation EC50, HLM) was 23.2 µM and the “p53 activation Efficacy, No MS” value [2] was 70.691% and 61.8737%. For the same compound, the EC50 ([2]; read-out: p53 activation EC50, No MS) was 35.6 µM, the “Viability EC50, HLM” value (p53RE-bla HCT-116 cells) was “inactive” and the “Viability EC50, No MS” value (p53RE-bla HCT-116 cells) was “inactive”. For the same compound, the “Viability EC50, RLM” value (p53RE-bla HCT-116 cells) was “inactive”, the “Viability Efficacy, HLM” value (p53RE-bla HCT-116 cells) was “inactive” and the “Viability Efficacy, No MS” value (p53RE-bla HCT-116 cells) was “inactive”. The “Viability Efficacy, RLM” value (p53RE-bla HCT-116 cells) was “inactive”, the “p53 activation EC50, RLM” value [3] was “inactive” and the EC50 ([3]; read-out: p53 activation EC50, RLM) was 50.1 µM.

With `COc1c(C)c2c(c(O)c1C/C=C(\C)CCC(=O)O)C(=O)OC2` [Mycophenolic acid] the “p53 activation EC50, cherry pick confirmation” value [1] was “inactive”, the “p53 activation EC50, primary screening” value [1] was “inactive” and the “p53 activation efficacy, cherry pick confirmation” value [1] was “inactive”. The “p53 activation efficacy, primary screening” value [1] was “inactive”, the EC50 [2, 6] was 0.172 µM and the EC50 [2, 7] was 0.174 µM. For the same compound, the Emax [2, 8] was 58.4%, the Emax [2, 9] was 42.7% and the “Viability EC50, cherry pick confirmation” value (p53RE-bla HCT-116 cells) was “inactive”. The “Viability EC50, primary screening” value (p53RE-bla HCT-116 cells) was “inactive”, the “Viability efficacy, cherry pick confirmation” value (p53RE-bla HCT-116 cells) was “inactive” and the “Viability efficacy, primary screening” value (p53RE-bla HCT-116 cells) was “inactive”. For the same compound, the “p53 activation EC50, cherry pick confirmation” value [3] was “inactive”, the “p53 activation EC50, primary screening” value [3] was “inactive” and the “p53 activation efficacy, cherry pick confirmation” value [3] was “inactive”. For the same compound, the “p53 activation efficacy, primary screening” value [3] was “inactive”.

With `Nc1cnn([C@@H]2O[C@H](CO)[C@@H](O)[C@H]2O)c(=O)n1` [6-Azacytidine] the “EC50, p53 activation, cherry pick confirmation” value [1] was “inactive”, the “EC50, p53 activation, primary screening” value [1] was “inactive” and the “Efficacy, p53 activation, cherry pick confirmation” value [1] was “inactive”. For the same compound, the “Efficacy, p53 activation, primary screening” value [1] was “inactive”, the “Efficacy, p53 activation, cherry pick confirmation” value [2] was 68.68 and the “Efficacy, p53 activation, primary screening” value [2] was 56.623. The EC50 ([2]; read-out: EC50, p53 activation, cherry pick confirmation) was 1.1 µM, the EC50 [2, 10] was 0.807 µM and the “EC50, viability, cherry pick confirmation” value (p53RE-bla HCT-116 cells) was “inactive”. For the same compound, the “EC50, viability, primary screening” value (p53RE-bla HCT-116 cells) was “inactive”, the “Efficacy, viability, cherry pick confirmation” value (p53RE-bla HCT-116 cells) was “inactive” and the “Efficacy, viability, primary screening” value (p53RE-bla HCT-116 cells) was “inactive”. For the same compound, the “EC50, p53 activation, cherry pick confirmation” value [3] was “inactive”, the “EC50, p53 activation, primary screening” value [3] was “inactive” and the “Efficacy, p53 activation, cherry pick confirmation” value [3] was “inactive”. For the same compound, the “Efficacy, p53 activation, primary screening” value [3] was “inactive”.

`O=[Se](O)O` [Selenious acid] was tested, and the “EC50, p53 activation, cherry pick confirmation” value [1] was “inactive”, the “EC50, p53 activation, primary screening” value [1] was “inactive” and the “Efficacy, p53 activation, cherry pick confirmation” value [1] was “inactive”. The “Efficacy, p53 activation, primary screening” value [1] was “inactive”, the “EC50, p53 activation, cherry pick confirmation” value [2] was “inactive” and the “Efficacy, p53 activation, cherry pick confirmation” value [2] was “inactive”. The “Efficacy, p53 activation, primary screening” value [2] was 32.672, the EC50 [2, 10] was 45.1 µM and the “EC50, viability, cherry pick confirmation” value (p53RE-bla HCT-116 cells) was “inactive”. For the same compound, the “EC50, viability, primary screening” value (p53RE-bla HCT-116 cells) was “inactive”, the EC50 (p53RE-bla HCT-116 cells; read-out: EC50, viability, cherry pick confirmation) was 25.8 µM and the EC50 (p53RE-bla HCT-116 cells; read-out: EC50, viability, primary screening) was 42.9 µM. For the same compound, the “EC50, p53 activation, cherry pick confirmation” value [3] was “inactive”, the “EC50, p53 activation, primary screening” value [3] was “inactive” and the “Efficacy, p53 activation, cherry pick confirmation” value [3] was “inactive”. The “Efficacy, p53 activation, primary screening” value [3] was “inactive”.

With `Oc1ccc(-c2ccc(O)cc2)cc1` [4,4'-Biphenyldiol] the “EC50, p53 activation, cherry pick confirmation” value [1] was “inactive”, the “EC50, p53 activation, primary screening” value [1] was “inactive” and the “Efficacy, p53 activation, cherry pick confirmation” value [1] was “inactive”. For the same compound, the “Efficacy, p53 activation, primary screening” value [1] was “inactive”, the “EC50, p53 activation, cherry pick confirmation” value [2] was “inactive” and the “Efficacy, p53 activation, cherry pick confirmation” value [2] was “inactive”. For the same compound, the EC50 [2, 4] was 35.4 µM, the Emax [2, 5] was 48.2% and the “EC50, viability, cherry pick confirmation” value (p53RE-bla HCT-116 cells) was “inactive”. The “EC50, viability, primary screening” value (p53RE-bla HCT-116 cells) was “inactive”, the “Efficacy, viability, cherry pick confirmation” value (p53RE-bla HCT-116 cells) was “inactive” and the “Efficacy, viability, primary screening” value (p53RE-bla HCT-116 cells) was “inactive”. The “EC50, p53 activation, cherry pick confirmation” value [3] was “inactive”, the “EC50, p53 activation, primary screening” value [3] was “inactive” and the “Efficacy, p53 activation, cherry pick confirmation” value [3] was “inactive”. The “Efficacy, p53 activation, primary screening” value [3] was “inactive”.

For `CNC(=O)c1ccccc1Sc1ccc2c(/C=C/c3ccccn3)n[nH]c2c1` [Axitinib], the “p53 activation EC50, cherry pick confirmation” value [1] was “inactive”, the “p53 activation EC50, primary screening” value [1] was “inactive” and the “p53 activation efficacy, cherry pick confirmation” value [1] was “inactive”. The “p53 activation efficacy, primary screening” value [1] was “inactive”, the EC50 [2, 7] was 1.41 µM and the Emax [2, 8] was 56%. The Emax [2, 9] was 83.4%, the “Viability EC50, cherry pick confirmation” value (p53RE-bla HCT-116 cells) was “inactive” and the “Viability EC50, primary screening” value (p53RE-bla HCT-116 cells) was “inactive”. For the same compound, the “Viability efficacy, cherry pick confirmation” value (p53RE-bla HCT-116 cells) was “inactive”, the “Viability efficacy, primary screening” value (p53RE-bla HCT-116 cells) was “inactive” and the “p53 activation EC50, cherry pick confirmation” value [3] was “inactive”. For the same compound, the “p53 activation EC50, primary screening” value [3] was “inactive”, the “p53 activation efficacy, cherry pick confirmation” value [3] was “inactive” and the “p53 activation efficacy, primary screening” value [3] was “inactive”.
